In patent US10195313B2, “Method for forming hydrogel arrays using surfaces with differential wettability” (Wisconsin Alumni Research Foundation, priority 2014, dated 2019):
Non-standard residues stand in square brackets, D forms with d. No end group written: not given here.

Test system: endothelial cells (HUVECs, iPSC-ECs, hESC-ECs)
Assay: endothelial cell tubule network formation (tubulogenesis) on patterned hydrogel array spots
Type: cell-based, human
Conditions: 0.067 mM to 0.267 of peptide incorporated into hydrogel arrays
Description: In this Example, a patterned hydrogel array was used to investigate endothelial cell tubule network formation (termed “tubulogenesis”) in vitro.
Specifically, patterned hydrogel arrays were composed of 8-arm, 20 kDa polyethylene glycol) functionalized with norbenene. As illustrated in the schematic shown in FIG. 13A, the patterned hydrogel arrays included hydrogel spots contained from 30 mg/mL to 60 mg/mL PEG, from 30-70% crosslinking with an MMP-degradable crosslinking peptide (KCGGPQGIWGQGCK, SEQ ID NO:35 or KCGGPQGIAGQGCK, SEQ ID NO:36) and 0.25 mM to 2 mM of a cell adhesive peptide (CRGDS, SEQ ID NO:2). Patterned hydrogel array spots were seeded with human umbilical vein endothelial cells (HUVECs), human induced pluripotent stem cell-derived endothelial cells (iPSC-ECs), and human embryonic stem cell-derived endothelial cells (hESC-ECs) in culture media containing standard growth medium for each cell type (Medium 199 and EGM-2 BULLETKIT™ (Lonza, Basel, Switzerland) for HUVECs, VASCULIFE® and VEGF LifeFactors for iPSC-ECs and hESC-ECs (Lifeline Cell Technology, Frederick, Md.)).
The hydrogel spots that contained between 36 mg/mL to 60 mg/mL PEG, 30-70% crosslinking with an MMP-degradable crosslinking peptide and 0.25 mM to 2 mM of the cell adhesive peptide supported of EC tubule formation (FIG. 13C). […]

“CKDAPYEWNFDILdYdAdFdE (CKDAPYEWNFDIL[dY][dA][dF][dE]; not fully specified (residue 13))” was tested, and the “persistence of tubule networks” value was “enhanced”.
